In patent publication US20260327263A1, “Anti-Bacterial Peptides” (priority 2023, published 2026):
Several values for one entry are separate records, joined by “and”; a condition that tells them apart may be missing. Equal entries are not always repeated. Entries after “also recorded” stand apart in the source; their conditions may differ. Where no end group is shown, it is not given here.

Experiments:
[1] = tested on: Pseudomonas aeruginosa (PA); assay: Live-dead staining of bacteria (membrane damage); type: cell-based, Pseudomonas aeruginosa (ATCC 14213)
Procedure: FIG. 2 verifies the effects of exemplary variant peptides in disrupting bacterial membranes. To test whether exemplary peptide E1AM2 causes membrane damage in bacteria, live and dead staining of exemplary bacteria strain Pseudomonas aeruginosa (ATCC 14213, PA) are performed in the presence of different concentrations of E1AM2 peptide. […] Scale bar-3 μm. The lesser number of PA cells observed upon E1AM2 treatment at these concentrations is due to leaking of the bacteria caused by membrane disruption. Thus, peptide variants with the cationic arm show bacterial membrane disrupting ability. FIG. 2B provides a quantification of Syto-9 and PI-positive Pseudomonas aeruginosa (PA) cells 24 hours post E1AM2 treatment.
Scale bar=3 μm. […] The percentage of PA cells with (PI-positive, red) and without (Syto-9 stained, green) membrane damage following E1AM2 V8LQ19L peptide treatment are shown.
PA was treated with E1AM2 for 24 hours followed by live-dead saining in accordance to the manufacturers' instruction (LIVE/DEAD™ BacLight™ Bacterial Viability Kit, for microscopy & quantitative assays).

[2] = tested on: Pseudomonas aeruginosa (PA); assay: Antimicrobial resistance evolution assay, PA; type: cell-based; conditions: for development of antimicrobial resistance, PA: serial passaging, 28 days, resistance = >4-fold MIC change
Text: The development of antimicrobial resistance is defined by greater than a 4-fold change to their initial minimum inhibitory concentration (MIC) at day 1. Exemplary bacteria strains Pseudomonas aeruginosa (PA) and Staphylococcus aureus (SA) are subjected to continuous daily serial passaging over several days, with treatment of exemplary variant peptides E1AM2 (SEQ ID NO: 2) and Q19L (SEQ ID NO: […]) at subinhibitory concentrations. […] The treatments were discontinued when the MIC increased by more than four-fold from the initial MIC or when MIC reached >100 μM.
Briefly, sequential passaging of PA, and SA cells was done with sub-inhibitory concentrations of antibiotics or E1AM2 up to 4 weeks. The cells grown in those concentrations of antibiotics or peptides were diluted to A600 nm (OD600) of ~0.2 and serially passaged daily with the same concentrations at 37° C. with agitation at 24 h intervals.

[3] = tested on: Staphylococcus aureus (SA); assay: Time-kill assay, Staphylococcus aureus; type: cell-based; conditions: for time to kill SA (in words): 1X MBC; for Time kill SA, >99% killing: at 1X MBC, * indicates killing within seconds
Procedure: (§1) The bactericidal abilities of the variant peptides are not only effective, but also fast-acting. […] The killing kinetics are detailed in Table 11 below.
(§2) Pseudomonas aeruginosa (PA) and Staphylococcus aureus (SA) strains were grown as per CLSI guidelines. AMPs were added to the bacterial cultures at their 1X MBC concentrations. Upon treatment, the bacterial cultures were enumerated for viable counts immediately within 1 min, 5 min, 15 min, 30 min and 60 min post-treatments.

[4] = tested on: Staphylococcus aureus (SA); assay: Broth microdilution anti-bacterial assay (CLSI), Staphylococcus aureus; type: cell-based; conditions: SA; for MIC: overnight, 37° C., ≥99% inhibition; for MBC: ≥99% killing
human keratinocytes = assay: 2D scratch assay, keratinocyte migration; type: cell-based
Procedure: Wound healing is directly associated with the migration speed of keratinocytes. The migration speed of human keratinocytes in presence of E1AM2, V8L (SEQ ID NO: 19), and Q19L variants is tested in comparison with pexiganan (SEQ ID NO: 54). Migration speed of human keratinocytes assessed in a 2D scratch assay at D 0 and D 2 timepoints. Decrease in wound area over time was measured by applying an ImageJ plugin ‘Wound Healing Size Tool’ on bright-field images. The change in wound area over the course of 48 hours was used as a measure of the migration speed of keratinocytes. Each value is the mean±SD (n=3). The p-value was calculated using ANOVA for multiple comparisons (Dunnett's multiple comparisons test). **** p<0.0001. *** p<0.001. ** p <0.01. * p<0.05. […] Both peptides healed wound faster within their respective MIC and MBC concentrations. […] SEQ ID NO: 27=Q19L; SEQ ID NO: 2=E1AM2; SEQ ID NO: 19=V8L.
Wound closure was compared with the untreated samples (circle, red highlight). For improved clarity, error bars have been omitted from this representation. […] Each value is the mean±SD (n=3). Statistical significance was assessed using ANOVA for multiple comparisons (Dunnett's multiple comparisons test). **** p<0.0001, *** p<0.001, ** p<0.01, *p<0.05, ns denotes nonsignificance, p >0.05.
Wound areas of the human keratinocyte culture were assessed in presence of peptides in a 2D scratch assay at the 0 hour, and 48-hour time points by applying an ImageJ plugin, ‘Wound Healing Size Tool’ on brightfield images. Quantification of wound width was calculated by obtaining the averaged Euclidean distance between each paired pixel at the lateral wound edges. The change in wound area over the course of 48 hours was used as a measure of the migration speed of keratinocytes.
Using the inverted BioTek Lionheart LX Automated Microscope, brightfield images were obtained at 4× magnification to observe the wound area at timepoints 0 (before treatment) and 48 hours-post treatment. Microscopy settings were maintained as focus offset (781.3 μm), illumination (2), integration Time (21) with no gain. To cover the entire well, montage images of four rows by three columns were stitched together by enabling the “image stitching” function and images were saved in tiff-format.

[5] = tested on: Pseudomonas aeruginosa (PA); assay: Time-kill assay, Pseudomonas aeruginosa; type: cell-based; conditions: for time to kill PA (in words): 1X MBC; for Time kill PA, >99% killing: at 1X MBC, * indicates killing within seconds
Procedure: as §1, §2

Substance	incorporation of propidium iodide (PI), membrane damage ([1]; at 1× MIC (3.125 μM) and 1X MBC (6.25 μM), 24 h) [%]	development of antimicrobial resistance, PA [2]	time to kill SA (in words) [3]	Time kill SA, >99% killing [3]	MIC [4]	MBC [4] [µM]	migration speed of keratinocytes (human keratinocytes; 48 h, E1AM2 3.125-12.5 μM, Q19L 3.125-6.25 μM)	time to kill PA (in words) [5]	Time kill PA, >99% killing [5]	mechanism of bacterial killing (live/dead) ([1]; FIG. 12)	AMR prevention / resistance induction ([2]; Table 15: in PA and SA, bacteria not named)	MIC ([4]; listed as VBLQ19L) [µM]	MBC ([4]; listed as VBLQ19L) [µM]	wound closure, 2D scratch (human keratinocytes; up to 16X MBC)
E1AM2: untagged (E1AM2), KKLLKKWVKLSKKALKLAQSL	100	prevented resistance acquisition	within minutes	1 min	6.25 µM and 6.28 µM	12.5	increase keratinocyte migration; also recorded: increased the migration speed of keratinocytes significantly	within minutes	1 min	–	–	–	–	–
KKLLKKWLKLSKKALKLALSL-NH2 [V8LQ19L]	–	effective in preventing the acquisition of AMR	within seconds	1* min	1.56 µM	1.56	–	within seconds	1* min	primarily through membrane damage	Prevent AMR	1.56	1.56	did not impair wound healing
